Laboratory results taken from the supplement of paper PMC10307832.

Legend:
Test in all cases: relative viability (nuclei count vs DMSO), 5 days (fraction); higher = more cells survive
CUDC-101 + Pictilisib = compound: C#Cc1cccc(Nc2ncnc3cc(OC)c(OCCCCCCC(=O)NO)cc23)c1 [CUDC-101] + CS(=O)(=O)N1CCN(Cc2cc3nc(-c4cccc5[nH]ncc45)nc(N4CCOCC4)c3s2)CC1 [Pictilisib] (partner 1 µM)
In short: (§1)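 Relative viability equals treated-well nuclei counts divided by vehicle-well nuclei counts. Counts came from 4× images of lung cancer cell lines grown in 1536-well plates for 5 days after pin-tool dosing on the day after seeding. Dosing used one drug alone or a fixed anchor-drug dose plus five library-drug doses (not always all listed) in √10 steps, and values are medians of duplicate plates.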

[1] = compound: C1=CC=C2C(=C1)N=C(S2)C(C#N)C3=NC(=NC=C3)NCCC4=CN=CC=C4 + COc1cc2c(Oc3ccc(NC(=O)C4(C(=O)Nc5ccc(F)cc5)CC4)cc3F)ccnc2cc1OCCCN1CCOCC1 [Foretinib] (partner 0.25 µM)
In short: as §1

[2] = compound: C1=CC=C2C(=C1)N=C(S2)C(C#N)C3=NC(=NC=C3)NCCC4=CN=CC=C4 + COc1cccc2cc(-c3nc([C@H]4CC[C@H](C(=O)O)CC4)n4ncnc(N)c34)[nH]c12 [OSI-027] (partner 0.5 µM)
In short: as §1

Vandetanib + Alpelisib = compound: COc1cc2/c(=N/c3ccc(Br)cc3F)nc[nH]c2cc1OCC1CCN(C)CC1 [Vandetanib] + Cc1nc(NC(=O)N2CCC[C@H]2C(N)=O)sc1-c1ccnc(C(C)(C)C(F)(F)F)c1 [Alpelisib] (partner 2 µM)
In short: as §1

**Q.** With UMC-11 as the cell line, how does the relative viability (CUDC-101 + Pictilisib; first compound 0.01 µM) read?
**A.** The relative viability was 0.857.

**Q.** And the relative viability (CUDC-101 + Pictilisib; first compound 0.03162 µM)?
**A.** Its relative viability is 0.775.

**Q.** And the relative viability (CUDC-101 + Pictilisib; first compound 0.1 µM)?
**A.** The relative viability was 0.679.

**Q.** And the relative viability (CUDC-101 + Pictilisib; first compound 0.3162 µM)?
**A.** Its relative viability is 0.575.

**Q.** What about the relative viability (CUDC-101 + Pictilisib; first compound 1 µM) of the same cell line?
**A.** Its relative viability is 0.108.

**Q.** And the relative viability ([1]; first compound 0.005 µM)?
**A.** The relative viability was 0.908.

**Q.** And the relative viability ([1]; first compound 0.01581 µM)?
**A.** The relative viability was 0.993.

**Q.** And the relative viability ([1]; first compound 0.05 µM)?
**A.** The relative viability was 0.999.

**Q.** And the relative viability ([1]; first compound 0.1581 µM)?
**A.** Its relative viability is 1.01.

**Q.** And the relative viability ([1]; first compound 0.5 µM)?
**A.** The relative viability was 1.05.

**Q.** And the relative viability ([2]; first compound 0.005 µM)?
**A.** The relative viability was 0.408.

**Q.** What about the relative viability ([2]; first compound 0.01581 µM) of the same cell line?
**A.** The relative viability was 0.493.

**Q.** And the relative viability ([2]; first compound 0.05 µM)?
**A.** The relative viability was 0.445.

**Q.** And the relative viability ([2]; first compound 0.1581 µM)?
**A.** Its relative viability is 0.468.

**Q.** What about the relative viability ([2]; first compound 0.5 µM) of the same cell line?
**A.** The relative viability was 0.35.

**Q.** What about the relative viability (Vandetanib + Alpelisib; first compound 0.02 µM) of the same cell line?
**A.** Its relative viability is 0.897.

**Q.** And the relative viability (Vandetanib + Alpelisib; first compound 0.06325 µM)?
**A.** Its relative viability is 0.975.

**Q.** And the relative viability (Vandetanib + Alpelisib; first compound 0.2 µM)?
**A.** Its relative viability is 0.905.

**Q.** What about the relative viability (Vandetanib + Alpelisib; first compound 0.6325 µM) of the same cell line?
**A.** Its relative viability is 0.908.

**Q.** What about the relative viability (Vandetanib + Alpelisib; first compound 2 µM) of the same cell line?
**A.** Its relative viability is 0.922.
